Legend:
[1] = target: T1, S-methyl-5'-thioadenosine phosphorylase (Homo sapiens) (UniProt Q13126); assay: Ratio of Kcat to Km against human Methylthioadenosine phosphorylase
T1 sequence (whole entry): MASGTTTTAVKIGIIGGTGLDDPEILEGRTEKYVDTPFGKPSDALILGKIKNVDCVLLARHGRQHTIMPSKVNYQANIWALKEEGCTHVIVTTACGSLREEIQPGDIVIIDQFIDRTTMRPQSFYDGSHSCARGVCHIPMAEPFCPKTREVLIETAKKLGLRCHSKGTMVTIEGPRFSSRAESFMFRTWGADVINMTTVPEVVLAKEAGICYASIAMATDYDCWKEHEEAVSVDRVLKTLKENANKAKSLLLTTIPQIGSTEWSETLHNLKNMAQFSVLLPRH

[2] = target: T1, S-methyl-5'-thioadenosine phosphorylase (Homo sapiens); assay: Kcat against human methylthioadenosine phosphorylase expressed in Escherichia coli BL21 DE3 cells
[3] = substrate: Nc1ncnc2c1ncn2[C@@H]1O[C@H](CSC2CCCC2)[C@@H](O)[C@H]1O; assay: (§1) Km against human methylthioadenosine phosphorylase expressed in Escherichia coli BL21 DE3 cells
[4] = substrate: Cc1cccc(SC[C@H]2O[C@@H](n3cnc4c(N)ncnc43)[C@H](O)[C@@H]2O)c1; assay: as §1
[5] = substrate: Cc1ccc(SC[C@H]2O[C@@H](n3cnc4c(N)ncnc43)[C@H](O)[C@@H]2O)cc1; assay: as §1
[6] = substrate: Nc1ncnc2c1ncn2[C@@H]1O[C@H](CSCc2ccccc2)[C@@H](O)[C@H]1O; assay: as §1
[7] = substrate: Nc1ncnc2c1ncn2[C@@H]1O[C@H](CNc2ccccc2)[C@@H](O)[C@H]1O; assay: as §1
[8] = substrate: CSC[C@H]1O[C@@H](n2cnc3c(N)ncnc32)C(N=[N+]=[N-])[C@@H]1O; assay: as §1
[9] = substrate: Nc1ncnc2c1ncn2[C@@H]1O[C@H](CSc2ccccn2)[C@@H](O)[C@H]1O; assay: as §1
[10] = substrate: COc1ccc(SC[C@H]2O[C@@H](n3cnc4c(N)ncnc43)[C@H](O)[C@@H]2O)cc1; assay: as §1
[11] = substrate: Nc1ncnc2c1ncn2[C@@H]1O[C@H](CSCCO)[C@@H](O)[C@H]1O; assay: as §1
[12] = substrate: CSC[C@H]1O[C@@H](n2cnc3c(N)ncnc32)[C@H](N)[C@@H]1O; assay: as §1
[13] = substrate: CCC(C)CSC[C@H]1O[C@@H](n2cnc3c(N)ncnc32)[C@H](O)[C@@H]1O; assay: as §1
[14] = substrate: CCCCSC[C@H]1O[C@@H](n2cnc3c(N)ncnc32)[C@H](O)[C@@H]1O; assay: as §1
[15] = substrate: Cc1ccccc1SC[C@H]1O[C@@H](n2cnc3c(N)ncnc32)[C@H](O)[C@@H]1O; assay: as §1
[16] = substrate: Nc1ncnc2c1ncn2[C@@H]1O[C@H](CSCCc2ccccc2)[C@@H](O)[C@H]1O; assay: as §1
[17] = substrate: CC(C)CCSC[C@H]1O[C@@H](n2cnc3c(N)ncnc32)[C@H](O)[C@@H]1O; assay: as §1
[18] = substrate: Nc1ncnc2c1ncn2[C@@H]1O[C@H](CSc2nccs2)[C@@H](O)[C@H]1O; assay: as §1
[19] = substrate: CCSC[C@H]1O[C@@H](n2cnc3c(N)ncnc32)[C@H](O)[C@@H]1O; assay: as §1
[20] = substrate: CC(C)CSC[C@H]1O[C@@H](n2cnc3c(N)ncnc32)[C@H](O)[C@@H]1O; assay: as §1
[21] = substrate: C[C@H]1O[C@@H](n2cnc3c(N)ncnc32)[C@H](O)[C@@H]1O; assay: as §1
[22] = substrate: Nc1ncnc2c1ncn2[C@@H]1O[C@H](CSc2ccccc2)[C@@H](O)[C@H]1O; assay: as §1
[23] = substrate: Nc1ncnc2c1ncn2[C@@H]1O[C@H](CSCCc2ccccn2)[C@@H](O)[C@H]1O; assay: as §1
[24] = substrate: CSC[C@H]1O[C@@H](n2cnc3c(N)ncnc32)C[C@@H]1O; assay: as §1
[25] = substrate: Nc1ncnc2c1ncn2[C@@H]1O[C@H](COc2ccccc2)[C@@H](O)[C@H]1O; assay: as §1
[26] = substrate: CC(C)(C)SC[C@H]1O[C@@H](n2cnc3c(N)ncnc32)[C@H](O)[C@@H]1O; assay: as §1
[27] = substrate: Nc1ncnc2c1ncn2[C@@H]1O[C@H](CSc2ccncc2)[C@@H](O)[C@H]1O; assay: as §1
[28] = substrate: Nc1ncnc2c1ncn2[C@@H]1O[C@H](CSc2ncc[nH]2)[C@@H](O)[C@H]1O; assay: as §1
[29] = substrate: Nc1ncnc2c1ncn2[C@@H]1O[C@H](CSc2ccc(C(F)(F)F)cc2)[C@@H](O)[C@H]1O; assay: as §1
[30] = substrate: Nc1ncnc2c1ncn2[C@@H]1O[C@H](CSC2CCCCC2)[C@@H](O)[C@H]1O; assay: as §1
[31] = substrate: Nc1ncnc2c1ncn2[C@@H]1O[C@H](CSc2ccc3ccccc3n2)[C@@H](O)[C@H]1O; assay: as §1
[32] = substrate: CSC[C@@H]1C[C@@H](O)[C@H](n2cnc3c(N)ncnc32)O1; assay: as §1
[33] = substrate: Nc1ncnc2c1ncn2[C@@H]1O[C@H](CCc2ccccc2)[C@@H](O)[C@H]1O; assay: as §1

## CC(C)(C)SC[C@H]1O[C@@H](n2cnc3c(N)ncnc32)[C@H](O)[C@@H]1O
[1]
  Ratio: 0.05 µM⁻¹ s⁻¹
[2]
  K cat: 0.85 s⁻¹

## CSC[C@H]1O[C@@H](n2cnc3c(N)ncnc32)[C@H](O)[C@@H]1O (stereo in doubt; 1)
[1]
  Ratio: 3.2 µM⁻¹ s⁻¹
[2]
  K cat: 4.6 s⁻¹

## CC(C)CCSC[C@H]1O[C@@H](n2cnc3c(N)ncnc32)[C@H](O)[C@@H]1O
[1]
  Ratio: 1.96 µM⁻¹ s⁻¹
[2]
  K cat: 5.5 s⁻¹

## Nc1ncnc2c1ncn2[C@@H]1O[C@H](CCc2ccccc2)[C@@H](O)[C@H]1O
[1]
  Ratio: 3.5 µM⁻¹ s⁻¹
[2]
  K cat: 4.6 s⁻¹

## CC(C)CSC[C@H]1O[C@@H](n2cnc3c(N)ncnc32)[C@H](O)[C@@H]1O
[1]
  Ratio: 0.74 µM⁻¹ s⁻¹
[2]
  K cat: 2.3 s⁻¹

## Nc1ncnc2c1ncn2[C@@H]1O[C@H](CNc2ccccc2)[C@@H](O)[C@H]1O
[1]
  Ratio: 0.24 µM⁻¹ s⁻¹
[2]
  K cat: 2.02 s⁻¹

## Nc1ncnc2c1ncn2[C@@H]1O[C@H](COc2ccccc2)[C@@H](O)[C@H]1O
[1]
  Ratio: 0.09 µM⁻¹ s⁻¹
[2]
  K cat: 1.11 s⁻¹

## CSC[C@H]1O[C@@H](n2cnc3c(N)ncnc32)[C@H](N)[C@@H]1O
[1]
  Ratio: 0.022 µM⁻¹ s⁻¹
[2]
  K cat: 0.67 s⁻¹

## Cc1ccccc1SC[C@H]1O[C@@H](n2cnc3c(N)ncnc32)[C@H](O)[C@@H]1O
[1]
  Ratio: 0.03 µM⁻¹ s⁻¹
[2]
  K cat: 0.18 s⁻¹

## C[C@H]1O[C@@H](n2cnc3c(N)ncnc32)[C@H](O)[C@@H]1O
[1]
  Ratio: 0.8 µM⁻¹ s⁻¹
[2]
  K cat: 4.8 s⁻¹

## CCCCSC[C@H]1O[C@@H](n2cnc3c(N)ncnc32)[C@H](O)[C@@H]1O
[1]
  Ratio: 1.48 µM⁻¹ s⁻¹
[2]
  K cat: 5.9 s⁻¹

## Nc1ncnc2c1ncn2[C@@H]1O[C@H](CSc2ccccn2)[C@@H](O)[C@H]1O
[1]
  Ratio: 0.66 µM⁻¹ s⁻¹
[2]
  K cat: 3.44 s⁻¹

## Nc1ncnc2c1ncn2[C@@H]1O[C@H](CSCc2ccccc2)[C@@H](O)[C@H]1O
[1]
  Ratio: 0.53 µM⁻¹ s⁻¹
[2]
  K cat: 2.5 s⁻¹

## Nc1ncnc2c1ncn2[C@@H]1O[C@H](CSC2CCCC2)[C@@H](O)[C@H]1O
[1]
  Ratio: 0.47 µM⁻¹ s⁻¹
[2]
  K cat: 1.5 s⁻¹

## Nc1ncnc2c1ncn2[C@@H]1O[C@H](CSc2ccncc2)[C@@H](O)[C@H]1O
[1]
  Ratio: 0.26 µM⁻¹ s⁻¹
[2]
  K cat: 0.23 s⁻¹

## Nc1ncnc2c1ncn2[C@@H]1O[C@H](CSc2ncc[nH]2)[C@@H](O)[C@H]1O
[1]
  Ratio: 0.42 µM⁻¹ s⁻¹
[2]
  K cat: 3.8 s⁻¹

## CCC(C)CSC[C@H]1O[C@@H](n2cnc3c(N)ncnc32)[C@H](O)[C@@H]1O (stereo partly drawn)
[1]
  Ratio: 0.84 µM⁻¹ s⁻¹
[2]
  K cat: 4.2 s⁻¹

## CSC[C@H]1O[C@@H](n2cnc3c(N)ncnc32)C(F)[C@@H]1O (stereo partly drawn)
[2]
  K cat: 0.0004 s⁻¹

## CSC[C@H]1O[C@@H](n2cnc3c(N)ncnc32)C[C@@H]1O
[1]
  Ratio: 0.09 µM⁻¹ s⁻¹
[2]
  K cat: 0.28 s⁻¹

## CSC[C@H]1O[C@@H](n2cnc3c(N)ncnc32)[C@H](O)[C@@H]1O (stereo in doubt; 7)
[1]
  Ratio: 0.0001 µM⁻¹ s⁻¹
[2]
  K cat: 0.0065 s⁻¹

## Nc1ncnc2c1ncn2[C@@H]1O[C@H](CSc2nccs2)[C@@H](O)[C@H]1O
[1]
  Ratio: 0.73 µM⁻¹ s⁻¹
[2]
  K cat: 2.49 s⁻¹

## CSC[C@@H]1C[C@@H](O)[C@H](n2cnc3c(N)ncnc32)O1
[1]
  Ratio: 0.001 µM⁻¹ s⁻¹
[2]
  K cat: 0.004 s⁻¹

## Cc1cccc(SC[C@H]2O[C@@H](n3cnc4c(N)ncnc43)[C@H](O)[C@@H]2O)c1
[1]
  Ratio: 1.2 µM⁻¹ s⁻¹
[2]
  K cat: 2.4 s⁻¹

## CSC[C@H]1O[C@@H](n2cnc3c(N)ncnc32)C(N=[N+]=[N-])[C@@H]1O (stereo partly drawn)
[1]
  Ratio: 1.1e-05 µM⁻¹ s⁻¹
[2]
  K cat: 0.04 s⁻¹

## Nc1ncnc2c1ncn2[C@@H]1O[C@H](CSC2CCCCC2)[C@@H](O)[C@H]1O
[1]
  Ratio: 0.45 µM⁻¹ s⁻¹
[2]
  K cat: 1.57 s⁻¹

## Nc1ncnc2c1ncn2[C@@H]1O[C@H](CSCCO)[C@@H](O)[C@H]1O
[1]
  Ratio: 0.058 µM⁻¹ s⁻¹
[2]
  K cat: 1.46 s⁻¹

## Nc1ncnc2c1ncn2[C@@H]1O[C@H](CSc2ccc3ccccc3n2)[C@@H](O)[C@H]1O
[1]
  Ratio: 0.46 µM⁻¹ s⁻¹
[2]
  K cat: 3.16 s⁻¹

## Nc1ncnc2c1ncn2[C@@H]1O[C@H](CSCCc2ccccc2)[C@@H](O)[C@H]1O
[1]
  Ratio: 0.43 µM⁻¹ s⁻¹
[2]
  K cat: 2.14 s⁻¹

## Nc1ncnc2c1ncn2[C@@H]1O[C@H](CSc2ccc(C(F)(F)F)cc2)[C@@H](O)[C@H]1O
[1]
  Ratio: 0.17 µM⁻¹ s⁻¹
[2]
  K cat: 0.3 s⁻¹

## Cc1ccc(SC[C@H]2O[C@@H](n3cnc4c(N)ncnc43)[C@H](O)[C@@H]2O)cc1
[1]
  Ratio: 0.93 µM⁻¹ s⁻¹
[2]
  K cat: 1.4 s⁻¹

## Nc1ncnc2c1ncn2[C@@H]1O[C@H](CSc2ccccc2)[C@@H](O)[C@H]1O
[1]
  Ratio: 0.5 µM⁻¹ s⁻¹
[2]
  K cat: 1.5 s⁻¹

## Nc1ncnc2c1ncn2[C@@H]1O[C@H](CSCCc2ccccn2)[C@@H](O)[C@H]1O
[1]
  Ratio: 0.09 µM⁻¹ s⁻¹
[2]
  K cat: 1.01 s⁻¹

## CCSC[C@H]1O[C@@H](n2cnc3c(N)ncnc32)[C@H](O)[C@@H]1O
[1]
  Ratio: 1.6 µM⁻¹ s⁻¹
[2]
  K cat: 2.9 s⁻¹

## COc1ccc(SC[C@H]2O[C@@H](n3cnc4c(N)ncnc43)[C@H](O)[C@@H]2O)cc1
[1]
  Ratio: 0.11 µM⁻¹ s⁻¹
[2]
  K cat: 0.8 s⁻¹

B1: S-methyl-5'-thioadenosine phosphorylase (Homo sapiens), Q13126 (protein)
chain: T1 sequence (whole entry)
[3]
  Km: 3.2 µM
[4]
  Km: 2 µM
[5]
  Km: 1.5 µM
[6]
  Km: 4.6 µM
[7]
  Km: 8.5 µM
[8]
  Km: 3600 µM
[9]
  Km: 5.2 µM
[10]
  Km: 7 µM
[11]
  Km: 25 µM
[12]
  Km: 30 µM
[13]
  Km: 5 µM
[14]
  Km: 4 µM
[15]
  Km: 5.6 µM
[16]
  Km: 5 µM
[17]
  Km: 2.8 µM
[18]
  Km: 3.4 µM
[19]
  Km: 1.8 µM
[20]
  Km: 3.1 µM
[21]
  Km: 6 µM
[22]
  Km: 3 µM
[23]
  Km: 10.2 µM
[24]
  Km: 3.1 µM
[25]
  Km: 12 µM
[26]
  Km: 17 µM
[27]
  Km: 0.88 µM
[28]
  Km: 9 µM
[29]
  Km: 1.7 µM
[30]
  Km: 3.5 µM
[31]
  Km: 6.9 µM
[32]
  Km: 3.9 µM
[33]
  Km: 1.3 µM

Source: ChEMBL document CHEMBL1139590, “Design, synthesis, and biological evaluation of novel human 5'-deoxy-5'-methylthioadenosine phosphorylase (MTAP) substrates” (Bioorg Med Chem Lett, 2005)
